According to patent publication US20250248403A1, “COMPOSITION FOR REDUCING AMOUNT OF REACTIVE OXYGEN” (KANEKA CORPORATION, priority 2022, published 2025):

System: soybeans (Fukuyutaka)
Assay: Electron transfer rate (ETR) by PAM fluorometry after foliar spraying and paraquat application
Format: in vivo, soybean
Conditions: 24 h after paraquat
Excerpt: In FIG. 1 to FIG. 18 related to the examples, the relative value indicated above each bar chart in each drawing means a relative value when T1 in each drawing is 100. When an X % increase (relative to T2) is indicated above each bar chart in each drawing, it means that the value increases by X % relative to the value of T2 in each drawing. When a Y % decrease (relative to T2) is indicated above each bar chart in each drawing, it means that the value decreases by Y % relative to the value of T2 in each drawing.
A 9 cm poly pot was filled with culture soil and seeded with three soybeans (Fukuyutaka).
After seeding, the soybeans were cultivated in an incubator set in a light period (6:00-18:00, temperature 26° C., illuminance 120 μmol/m^2·s) and a dark period (18:00-6:00, temperature 18° C.). After germination, they were thinned to one plant.
(§1) After the first true leaf development, in each of the following treatments, foliar spraying of the following liquid (composition for reducing reactive oxygen) was conducted on each plant (application of the composition for reducing reactive oxygen). Twenty-four hours after the foliar spraying, foliar spraying of a paraquat aqueous solution with SILWET L-77 added to make a 1,000-fold dilution was conducted on each plant, except for a Control (T1) (paraquat application).
Electron transfer rate (ETR) was measured by pulse amplitude modulated fluorometry (PAM fluorometry) twenty-four hours after the paraquat application. In addition, twenty-four hours after the paraquat application, a SPAD value was measured using a chlorophyll meter.
as §1, with “for the” for “for a”
ETR was measured by the PAM fluorometry twenty-four hours after the paraquat application. In addition, twenty-four hours after the paraquat application, a SPAD value was measured using a chlorophyll meter.
After seeding, the soybeans were cultivated in an incubator set in a light period (6:00-18:00, temperature 26° C., illuminance 120 μmol/m^2·s)

Row | Substance | ETR compared with T2 (Experimental Example 4, T3: SL diluted 1000 times, PAR 1496) | ETR compared with T2 (Experimental Example 3, T3: SF diluted 10000 times, PAR 1496) | ETR compared with T2 (Experimental Example 6, T3: SF diluted 10000 times, PAR 1496) | ETR compared with T2 (Experimental Example 9, T3: SF diluted 2000 times, PAR 1455)
1 | sophorolipid [SL] | slightly increased |  |  | 
2 | surfactin Na [SF] |  | slightly increased | slightly increased | significantly increased
